Test results as given in PMC7803973, “Structural basis of malaria parasite phenylalanine tRNA-synthetase inhibition by bicyclic azetidines” (Nature Communications, 2021).
Several values for one entry are separate records, joined by “and”; a condition that tells them apart may be missing. Identical values can stand only once.

Legend:
[1] = target: T1, PfcFRS (Plasmodium falciparum, UniProt Q8I246); assay: Surface plasmon resonance binding; conditions: Pf; SPR, 1:1 binding model; read-out: Kd (cFRS)
T1 sequence (Q8I246 1-575): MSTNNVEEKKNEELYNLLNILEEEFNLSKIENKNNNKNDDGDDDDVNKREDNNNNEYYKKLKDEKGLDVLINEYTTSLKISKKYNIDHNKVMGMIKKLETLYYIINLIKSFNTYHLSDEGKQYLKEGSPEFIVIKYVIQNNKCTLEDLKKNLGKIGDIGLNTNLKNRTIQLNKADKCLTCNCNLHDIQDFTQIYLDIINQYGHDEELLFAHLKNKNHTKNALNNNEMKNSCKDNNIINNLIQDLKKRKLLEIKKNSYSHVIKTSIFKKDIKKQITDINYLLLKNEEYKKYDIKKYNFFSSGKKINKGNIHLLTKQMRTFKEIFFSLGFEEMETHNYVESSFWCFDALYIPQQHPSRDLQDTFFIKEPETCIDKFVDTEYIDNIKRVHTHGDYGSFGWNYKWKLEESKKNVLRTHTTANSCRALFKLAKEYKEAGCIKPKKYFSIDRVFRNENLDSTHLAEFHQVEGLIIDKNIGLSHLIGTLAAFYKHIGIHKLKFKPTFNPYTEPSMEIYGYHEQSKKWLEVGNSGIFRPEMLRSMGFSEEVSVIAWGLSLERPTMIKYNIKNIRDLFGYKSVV
T1 sequence (Q8IIW2 1-623 partner): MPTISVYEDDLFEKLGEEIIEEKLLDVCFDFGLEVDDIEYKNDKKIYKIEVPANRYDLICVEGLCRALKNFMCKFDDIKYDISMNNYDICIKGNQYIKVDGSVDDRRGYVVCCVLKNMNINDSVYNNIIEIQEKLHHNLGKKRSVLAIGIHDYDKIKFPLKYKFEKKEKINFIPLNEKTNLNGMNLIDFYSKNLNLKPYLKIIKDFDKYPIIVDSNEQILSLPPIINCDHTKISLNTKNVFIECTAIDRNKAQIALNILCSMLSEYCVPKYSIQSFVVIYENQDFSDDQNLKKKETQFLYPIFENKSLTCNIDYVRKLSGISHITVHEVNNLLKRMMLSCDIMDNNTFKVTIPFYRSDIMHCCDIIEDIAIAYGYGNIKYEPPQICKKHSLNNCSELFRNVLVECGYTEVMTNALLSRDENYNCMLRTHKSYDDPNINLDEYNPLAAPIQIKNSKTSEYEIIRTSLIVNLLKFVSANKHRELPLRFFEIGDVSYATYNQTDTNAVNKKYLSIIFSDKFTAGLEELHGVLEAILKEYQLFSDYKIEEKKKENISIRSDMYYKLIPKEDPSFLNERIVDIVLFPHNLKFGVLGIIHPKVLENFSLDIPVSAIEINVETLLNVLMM
Procedure: (§1) These were carried out on a Biacore T200 instrument (GE Healthcare) at 25 °C. The binding experiments were performed in buffer 10 mM phosphate buffered saline (PBS), pH 7.4, containing 5% dimethyl sulfoxide (DMSO). The flow system was primed with the running buffer before the initiation of the experiment. Both PfcFRS and HscFRS were immobilized to Sensor Chip CM5 by standard amine coupling chemistry using N-hydroxysuccinimide (NHS) and ethyl(dimethylaminopropyl) carbodiimide (EDC) to an immobilization level of approximately 1500 RU. The binding experiments were carried out in a single cycle kinetics mode. BRD1389 was serially diluted in running buffer and injected at a flow rate of 60 μl min^−1 across both surfaces for 60 s and dissociations were set up for 120 s. The data analysis was done using Biacore evaluation T200 Evaluation software (GE Healthcare) and after applying the solvent correction, the data was fitted into the 1:1 binding evaluation method to determine the equilibrium dissociation constants (Kd).

[2] = target: HscFRS (Homo sapiens, UniProt Q9Y285); assay: Surface plasmon resonance binding; conditions: Hs; SPR, 1:1 binding model; read-out: Kd (cFRS)
Sequence of HscFRS (Q9NSD9 whole entry): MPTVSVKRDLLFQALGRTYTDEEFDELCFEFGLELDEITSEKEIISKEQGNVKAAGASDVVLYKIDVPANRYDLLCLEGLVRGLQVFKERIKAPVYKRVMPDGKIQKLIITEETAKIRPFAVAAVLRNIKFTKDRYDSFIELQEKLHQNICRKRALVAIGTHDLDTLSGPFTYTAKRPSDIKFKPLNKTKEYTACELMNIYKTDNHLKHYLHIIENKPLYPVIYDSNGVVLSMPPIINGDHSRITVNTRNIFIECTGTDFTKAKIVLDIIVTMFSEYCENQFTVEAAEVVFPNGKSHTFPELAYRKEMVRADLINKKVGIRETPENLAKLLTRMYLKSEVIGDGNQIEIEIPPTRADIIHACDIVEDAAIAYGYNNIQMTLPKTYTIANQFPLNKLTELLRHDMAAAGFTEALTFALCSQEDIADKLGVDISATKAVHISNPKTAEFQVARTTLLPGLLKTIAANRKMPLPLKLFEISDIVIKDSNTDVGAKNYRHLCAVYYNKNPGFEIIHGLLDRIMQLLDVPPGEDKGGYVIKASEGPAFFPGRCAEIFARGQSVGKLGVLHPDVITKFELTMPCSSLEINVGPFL
Sequence of HscFRS (Q9Y285 whole entry): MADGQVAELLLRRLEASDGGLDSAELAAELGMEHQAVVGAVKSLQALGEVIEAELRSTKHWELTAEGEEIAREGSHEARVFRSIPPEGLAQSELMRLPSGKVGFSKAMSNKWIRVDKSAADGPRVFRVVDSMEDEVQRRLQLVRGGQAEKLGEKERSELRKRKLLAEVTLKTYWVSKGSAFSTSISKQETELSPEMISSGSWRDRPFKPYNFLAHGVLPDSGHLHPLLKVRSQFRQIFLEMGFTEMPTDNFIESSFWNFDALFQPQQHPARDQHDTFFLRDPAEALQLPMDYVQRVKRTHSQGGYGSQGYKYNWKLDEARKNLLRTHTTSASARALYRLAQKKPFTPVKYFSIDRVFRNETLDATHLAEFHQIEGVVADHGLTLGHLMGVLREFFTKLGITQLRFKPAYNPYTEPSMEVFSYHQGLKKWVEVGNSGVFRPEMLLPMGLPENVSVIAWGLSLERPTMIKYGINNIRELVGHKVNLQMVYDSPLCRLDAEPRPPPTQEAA
Procedure: as §1

[3] = system: Plasmodium falciparum strain 3D7; assay: Parasite growth inhibition (drug susceptibility test, pLDH readout); assay type: cell-based
Procedure: The cultivation of P. falciparum was conducted according to Trager’s method with some modification. Precisely, parasites were kept in culture flasks with RPMI1640 medium supplemented with 10% human plasma and 2% fresh human erythrocytes and incubated at 37 °C with the gas condition of 5% CO2 and 5% O2. The parasitemia (percentage of infected erythrocytes to total erythrocytes) were kept within 0.25–10%. Culture medium was replaced, and fresh erythrocytes were supplied every 2–3 days. Drug susceptibility test was conducted according to Desjardins’s method[18] with some modification. […] […] The plates were kept at 37 °C with the gas condition of 5% CO2 and 5% O2 for 72 h and then parasite growth was quantified with Makler’s method to detect plasmdoial lactate dehydrogenase[19] with some modification. Precisely, culture plates were kept in freezer overnight and then thawed at 37 °C to disrupt the erythrocytes and parasite cells. In the new 96-well titer plates, 100 μl of enzyme reaction solution (110 mM Li-lactate, 0.5 mM acetylpyridine-adenine dinucleotide, 50 mM Tris (pH 7.5), 10 mM EDTA, 50 mM KCl, and 15 g l^−1 PEG6000) and 20 µl of freeze-thaw culture were mixed in each well and then kept at room temperature for 30 min. The detection solution was prepared by mixing equal volume of 2 mg ml^−1 nitro blue tetrazolium and 0.1 mg ml^−1 phenazine ethosulfate and 20 µl of the solution was added to each well.

Which Kd [1] does the source give for `COC[C@@H]1[C@H](c2ccc(C#Cc3ccccc3)cc2)[C@@H]2CN(C(=O)Nc3ccc(OC4CC4)cc3)C[C@@H](O)[C@@H](O)CN12` [BRD1389] here?
Its Kd is 4 nM.

What about the Kd [2] of the same compound?
Its Kd is 16000 nM.

And the “% Parasite Growth” value ([3]; 3D7, 0.000976562 ug/mL)?
The value was 93.5%.

What about the “% Parasite Growth” value ([3]; 3D7, 0.00195312 ug/mL) of the same compound?
Its value is 94.1%.

And the “% Parasite Growth” value ([3]; 3D7, 0.00390625 ug/mL)?
Its value is 94.0%.

And the “% Parasite Growth” value ([3]; 3D7, 0.0078125 ug/mL)?
The value was 47.5%.

What about the “% Parasite Growth” value ([3]; 3D7, 0.015625 ug/mL) of the same compound?
Its value is 14.7%.

And the “% Parasite Growth” value ([3]; 3D7, 0.03125 ug/mL)?
Its value is 8.9%.

What about the “% Parasite Growth” value ([3]; 3D7, 0.0625 ug/mL) of the same compound?
The value was 2.0%.

What about the “% Parasite Growth” value ([3]; 3D7, 0.125 ug/mL) of the same compound?
Its value is 1.8%.

And the “% Parasite Growth” value ([3]; 3D7, 0.25 ug/mL)?
The value was 1.5%.

What about the “% Parasite Growth” value ([3]; 3D7, 0.5 ug/mL) of the same compound?
The value was 1.7%.

What about the “% Parasite Growth” value ([3]; 3D7, 1 ug/mL) of the same compound?
Its value is 2.2%.

And the IC50 ([3]; Plasmodium falciparum, 3D7)?
The IC50 was 0.00753 µg/mL and 13.3 nM.

And the EC50 ([3]; Plasmodium falciparum, 3D7, 72 h)?
Its EC50 is 13 nM.
